Results on one substance are retold here after patent US4524066A, “Process for the preparation of injectable chondroitin polysulfate” (Luitpold-Werk Chemisch-pharmazeutische Fabrik, priority 1981, dated 1985).

Data set [1] deals with Cats. The data set can be described thus: Acute toxicity, cats, i.v. Type of data set: in vivo.
Data set [2] has as its system humans.
For data set [3], the system named is Dogs. As to the kind of experiment: Acute toxicity, dogs, i.v. The class given is in vivo.
In data set [4] the test system is NMRI mice. The data set can be described thus: Acute toxicity, NMRI mice, i.v. The class given is in vivo.
In data set [5] the test system is Wistar rats. As to the kind of experiment: Acute toxicity, Wistar rats, i.v. Type of data set: in vivo.

In the case of chondroitin polysulfate, the LD50/7d was > 1,000 mg/kg in data set [1], > 1,000 mg/kg in data set [3], > 3,500 mg/kg in data set [4] and > 3,000 mg/kg in data set [5]. In data set [2] (daily doses of up to 500 mg), the “therapeutic benefit of daily doses” value is on record as “therapeutically advantageous”. In data set [2] (single dosages 20-250 mg, in particular 30-150 mg, per individual in 0.2-2.0 ml), the “therapeutic action in humans” value is “have a therapeutic action in humans”.
